In the NIST ThermoML archive (doi:10.1021/je025630q):

Assay: compressibility factor (dimensionless); xn = mol fraction of the nth substance listed
Conditions: Gas, Burnett expansion method

CF [fluoromethane] + O=C=O
Conditions	compressibility factor
323.15 K, 1023.9 kPa, x2 = 0.619	0.9523
323.15 K, 1109.6 kPa, x2 = 0.189	0.9349
323.15 K, 1394.9 kPa, x2 = 0.378	0.9259
323.15 K, 1451.1 kPa, x2 = 0.791	0.9369
323.15 K, 1495.6 kPa, x2 = 0.619	0.9293
323.15 K, 1606.1 kPa, x2 = 0.189	0.904
323.15 K, 2009.1 kPa, x2 = 0.378	0.8909
323.15 K, 2102.7 kPa, x2 = 0.791	0.907
323.15 K, 2158.3 kPa, x2 = 0.619	0.8959
323.15 K, 2286.6 kPa, x2 = 0.189	0.8598
323.15 K, 2838.8 kPa, x2 = 0.378	0.8409
323.15 K, 2997.8 kPa, x2 = 0.791	0.8639
323.15 K, 3058.6 kPa, x2 = 0.619	0.8482
323.15 K, 3176.6 kPa, x2 = 0.189	0.798
323.15 K, 3899.6 kPa, x2 = 0.378	0.7717
323.15 K, 4170 kPa, x2 = 0.791	0.8027
323.15 K, 4217.2 kPa, x2 = 0.619	0.7813
323.15 K, 4257.2 kPa, x2 = 0.189	0.7144
323.15 K, 5138.4 kPa, x2 = 0.378	0.6793
323.15 K, 5587.6 kPa, x2 = 0.619	0.6915
323.15 K, 5596 kPa, x2 = 0.791	0.7197
333.15 K, 120.3 kPa, x2 = 0.392	0.9924
333.15 K, 128.5 kPa, x2 = 0.793	0.9965
333.15 K, 130.5 kPa, x2 = 0.572	0.9947
333.15 K, 141.4 kPa, x2 = 0.219	0.9909
333.15 K, 179.8 kPa, x2 = 0.392	0.9911
333.15 K, 191.9 kPa, x2 = 0.793	0.9938
333.15 K, 194.8 kPa, x2 = 0.572	0.9922
333.15 K, 211.2 kPa, x2 = 0.219	0.9886
333.15 K, 268.3 kPa, x2 = 0.392	0.9879
333.15 K, 286.2 kPa, x2 = 0.793	0.9901
333.15 K, 290.4 kPa, x2 = 0.572	0.9884
333.15 K, 314.8 kPa, x2 = 0.219	0.9843
333.15 K, 399.3 kPa, x2 = 0.392	0.9824
333.15 K, 426 kPa, x2 = 0.793	0.9846
333.15 K, 432.2 kPa, x2 = 0.572	0.9824
333.15 K, 467.7 kPa, x2 = 0.219	0.977
333.15 K, 592.5 kPa, x2 = 0.392	0.9737
333.15 K, 632.5 kPa, x2 = 0.793	0.9765
333.15 K, 641.1 kPa, x2 = 0.572	0.9736
333.15 K, 692.1 kPa, x2 = 0.219	0.9657
333.15 K, 874.8 kPa, x2 = 0.392	0.9605
333.15 K, 935.3 kPa, x2 = 0.793	0.9647
333.15 K, 946.8 kPa, x2 = 0.572	0.9606
333.15 K, 1017.9 kPa, x2 = 0.219	0.9489
333.15 K, 1282.7 kPa, x2 = 0.392	0.9408
333.15 K, 1375.1 kPa, x2 = 0.793	0.9475
333.15 K, 1389.2 kPa, x2 = 0.572	0.9416
333.15 K, 1484.9 kPa, x2 = 0.219	0.9247
333.15 K, 1863.4 kPa, x2 = 0.392	0.913
333.15 K, 2004.2 kPa, x2 = 0.793	0.9226
333.15 K, 2018.3 kPa, x2 = 0.572	0.9138
333.15 K, 2137.2 kPa, x2 = 0.219	0.8891
333.15 K, 2666.7 kPa, x2 = 0.392	0.8729
333.15 K, 2882 kPa, x2 = 0.793	0.8863
333.15 K, 2888.7 kPa, x2 = 0.572	0.8738
333.15 K, 3016.4 kPa, x2 = 0.219	0.8383
333.15 K, 3728.6 kPa, x2 = 0.392	0.8154
333.15 K, 4045.3 kPa, x2 = 0.572	0.8174
333.15 K, 4063.7 kPa, x2 = 0.793	0.8348
333.15 K, 4136 kPa, x2 = 0.219	0.7679
333.15 K, 5046.6 kPa, x2 = 0.392	0.7372
333.15 K, 5488.2 kPa, x2 = 0.572	0.7409
333.15 K, 5565.8 kPa, x2 = 0.793	0.7639
343.15 K, 125.5 kPa, x2 = 0.402	0.9971
343.15 K, 125.6 kPa, x2 = 0.787	0.996
343.15 K, 128.3 kPa, x2 = 0.591	0.9967
343.15 K, 135.4 kPa, x2 = 0.18	0.9953
343.15 K, 187.3 kPa, x2 = 0.402	0.9939
343.15 K, 187.7 kPa, x2 = 0.787	0.9941
343.15 K, 191.6 kPa, x2 = 0.591	0.9938
343.15 K, 202 kPa, x2 = 0.18	0.9914
343.15 K, 279.1 kPa, x2 = 0.402	0.9895
343.15 K, 280.1 kPa, x2 = 0.787	0.9911
343.15 K, 285.7 kPa, x2 = 0.591	0.9901
343.15 K, 300.8 kPa, x2 = 0.18	0.9865
343.15 K, 415.1 kPa, x2 = 0.402	0.9834
343.15 K, 417.3 kPa, x2 = 0.787	0.9864
343.15 K, 425.2 kPa, x2 = 0.591	0.9845
343.15 K, 447 kPa, x2 = 0.18	0.9794
343.15 K, 615.9 kPa, x2 = 0.402	0.9747
343.15 K, 620.2 kPa, x2 = 0.787	0.9794
343.15 K, 631.2 kPa, x2 = 0.591	0.9764
343.15 K, 662 kPa, x2 = 0.18	0.969
343.15 K, 910 kPa, x2 = 0.402	0.962
343.15 K, 918.6 kPa, x2 = 0.787	0.9691
343.15 K, 933.5 kPa, x2 = 0.591	0.9646
343.15 K, 975.3 kPa, x2 = 0.18	0.9536
343.15 K, 1336.1 kPa, x2 = 0.402	0.9436
343.15 K, 1353.5 kPa, x2 = 0.787	0.9539
343.15 K, 1372.4 kPa, x2 = 0.591	0.9474
343.15 K, 1426.1 kPa, x2 = 0.18	0.9315
343.15 K, 1943.4 kPa, x2 = 0.402	0.9169
343.15 K, 1979.2 kPa, x2 = 0.787	0.9318
343.15 K, 1999.6 kPa, x2 = 0.591	0.9222
343.15 K, 2061.5 kPa, x2 = 0.18	0.8996
343.15 K, 2787.5 kPa, x2 = 0.402	0.8786
343.15 K, 2861 kPa, x2 = 0.787	0.8998
343.15 K, 2876.3 kPa, x2 = 0.591	0.8861
343.15 K, 2930.2 kPa, x2 = 0.18	0.8542
343.15 K, 3914.8 kPa, x2 = 0.402	0.8243
343.15 K, 4057.2 kPa, x2 = 0.591	0.835
343.15 K, 4064.7 kPa, x2 = 0.18	0.7916
343.15 K, 4064.8 kPa, x2 = 0.787	0.8541
343.15 K, 5337.5 kPa, x2 = 0.402	0.7508
343.15 K, 5565.1 kPa, x2 = 0.591	0.7652
343.15 K, 5631.7 kPa, x2 = 0.787	0.7905
